In experiment [1] the test system is THP1 macrophages. Nature of the experiment: Gene expression measurement by Taqman quantitative RT-PCR in THP1 macrophages. The note with it: result in words. It counts as cell-based, human. The source says: Three oligonucleotides are used: a forward primer, a reverse primer, and a probe. All of them are specific for the target and are able to bind to it. The TaqMan assay uses a probe technology that exploits 5′→3′-nuclease activity of an enzyme, the most commonly used being Taq polymerase. The assay efficiency is largely dependent on this 5′→3′ nuclease activity. In this regard one should be careful in choosing a suitable polymerase. […] The probe is an oligonucleotide with a reporter dye at the 5′ end and a quencher dye at the 3′ end. The fluorescent reporter dye is attached covalently to the 5′ end and can be FAM (6-carboxyfluorescein), TET (tetrachloro-6-carboxyfluorescein), JOE (2,7-dimethoxy-4,5-dichloro-6-carboxyfluorescein), HEX (hexacholoro-6-carboxyfluorescein), or VIC. The reporter is quenched by TAMRA (6-carboxytetramethylrhodamine), bound to the 3′ end by a linker arm. […] An advantage of using DABCYL in the TaqMan probes is its reduced autofluorescence compared with TAMRA When the probe is intact the quencher dye absorbs the fluorescence of the reporter dye due to the proximity between both. […] By the 5′-exonuclease activity of the Taq:polymerase the probe is hydrolyzed and the reporter dye is separated from the quencher, resulting in an increase in fluorescence emission. […]

Experiment [2] has as its system THP1 macrophages. The experiment is described as follows: Gene expression measurement by Gene Chip Microarray in THP1 macrophages. It counts as cell-based, human. The note with it: Gene Chip Microarray analysis, result in words. The procedure: Cells were incubated at 37° C. and 5.2% CO2. For experimental treatments, cells were seeded at a density of 1×10^6/ml in 6-well plates in medium containing 100 nM phorbol 12-myristate 13-acetate (PMA) for 72 hours to fully differentiate them into adherent macrophages. The medium was then replaced by culture medium containing PMA with vehicle (DMSO) or test compound for 6 or 24 hours prior to harvesting. Total RNA was isolated using the TriZol reagent (Life Technologies) or the RNeasy mini kit (Qiagen) according to the manufacturer's protocols. To remove contaminating DNA, the samples were treated with RNAse free DNAse (GibCo).
Synthesis of first and second strand cDNA were performed using the SuperScript Choice Gene Chip Kit (Life Technologies) and reagents from Gibco. The double stranded cDNA, containing an incorporated T7 RNA polymerase binding site, was purified by extraction with a mix of phenol:chloroform:isoamylalcohol (Life Technologies). The organic and aqueous phases were separated by Phase Lock Gel (Eppendorf) and double-stranded cDNA was recovered by precipitation according to the manufacturer's protocol and then resuspended in water.
The double-stranded cDNA was converted to biotin-labeled cRNA by in vitro transcription (IVT) using a T7 kit (Ambion) and biotin-containing ribonucleotides (Enzo-LOXO GmbH). […]

One compound from patent US20060281088A1, “Markers for lxr activation” (priority 2003, published 2006) can be followed below.

In the case of `O=S(=O)(c1ccccc1)N(CC(F)(F)F)c1ccc(C(O)(C(F)(F)F)C(F)(F)F)cc1` [T0901317], the “Gene expression changes for ABCA1, ABCG1, APOC1, APOE, ASM3A, CDC42EP4, CXCR4, FASN, LDLR, NR1H3, VLDLR” value in the experiment with THP1 macrophages [1] is “robust and significant increase in expression”. For the same compound, the “Gene expression changes of the listed marker genes (ABCA1, ABCG1, APOC1, APOE, ASM3A, C3F, CDC42EP4, CXCR4 ... PRKCI)” value with THP1 macrophages [2] was “strong induction”.
